Bounds are passed on as bounds.

Experiment [1] has as its target T1, NaV1.7 (Homo sapiens (Human), UniProt Q15858). Put plainly: Patch voltage clamp electrophysiology (EP), affinity for the inactivated state of Nav1.7. The class given is cell-based. The settings on record: HEK-293 cells expressing human Nav1.7 with β1 subunit. The method, then: The following patch voltage clamp electrophysiology studies were performed on representative compounds of the invention using human embryonic kidney cells (HEK), permanently transfected with an expression vector containing the full-length cDNA coding for the desired human sodium channel α-subunit, grown in culture media containing 10% FBS, 1% PSG, and 0.5 mg/mL G418 at 37° C. with 5% CO2. […] Nav1.7 and Nav1.5 cDNAs (NM_002977 and AC137587; SCN5A, respectively) were stably expressed in HEK-293 cells. The β1 subunit was coexpressed only in the Nav1.7 cell line.
Sodium currents were measured using the patch clamp technique in the whole-cell configuration using either a PatchXpress automated voltage clamp or manually using an Axopatch 200B (Axon Instruments) or Model 2400 (A-M systems) amplifier. […] The pipette was filled with a solution comprised of: 5 mM NaCl, 10 mM CsCl, 120 mM CsF, 0.1 mM CaCl2, 2 mM MgCl2, 10 mM HEPES, 10 mM EGTA; and adjusted to pH 7.2 with CsOH. The external solution had the following composition: 140 mM NaCl, 5 mM KCl, 2 mM CaCl2, 1 mM MgCl2, 10 mM HEPES; and adjusted to pH 7.4 with NaOH. In some studies, the external sodium was reduced by equimolar replacement with choline. Osmolarity in the CsF internal and NaCl external solutions was adjusted to 300 mOsm/kg and 310 mOsm/kg with glucose, respectively. All recordings were performed at ambient temperature in a bath chamber with a volume of 150 μL. Control sodium currents were measured in 0.5% DMSO. Controls and representative compounds of the invention were applied to the recording chamber through a 4-pinch or 8-pinch valve bath perfusion system manufactured by ALA Scientific Instruments.
Series resistance compensation was applied (60-80%). […] All statistics in this study are given as mean±SD.
The membrane potential was maintained at a voltage where inactivation of the channel is complete (which was −60 mV for both Nav1.7 and Nav1.5). The voltage is then stepped back to a very negative (Vhold=−150 mV) voltage for 20 ms and then a test pulse is applied to quantify the compound block. […] The percent decrease in sodium current following wash-on of compound was taken as the percent block of sodium channels.
The Example numbers provided in Table 1 and Table 2 correspond to the Examples herein: […]

Experiment [2] deals with T1, NaV1.7. Description: NaV flux assay, inhibition of NaV1.7. The class given is cell-based. The settings on record: NaV flux data, included when EP data is not available.

T1 sequence (Q15858 other isoform, or with tags, fused parts or gaps): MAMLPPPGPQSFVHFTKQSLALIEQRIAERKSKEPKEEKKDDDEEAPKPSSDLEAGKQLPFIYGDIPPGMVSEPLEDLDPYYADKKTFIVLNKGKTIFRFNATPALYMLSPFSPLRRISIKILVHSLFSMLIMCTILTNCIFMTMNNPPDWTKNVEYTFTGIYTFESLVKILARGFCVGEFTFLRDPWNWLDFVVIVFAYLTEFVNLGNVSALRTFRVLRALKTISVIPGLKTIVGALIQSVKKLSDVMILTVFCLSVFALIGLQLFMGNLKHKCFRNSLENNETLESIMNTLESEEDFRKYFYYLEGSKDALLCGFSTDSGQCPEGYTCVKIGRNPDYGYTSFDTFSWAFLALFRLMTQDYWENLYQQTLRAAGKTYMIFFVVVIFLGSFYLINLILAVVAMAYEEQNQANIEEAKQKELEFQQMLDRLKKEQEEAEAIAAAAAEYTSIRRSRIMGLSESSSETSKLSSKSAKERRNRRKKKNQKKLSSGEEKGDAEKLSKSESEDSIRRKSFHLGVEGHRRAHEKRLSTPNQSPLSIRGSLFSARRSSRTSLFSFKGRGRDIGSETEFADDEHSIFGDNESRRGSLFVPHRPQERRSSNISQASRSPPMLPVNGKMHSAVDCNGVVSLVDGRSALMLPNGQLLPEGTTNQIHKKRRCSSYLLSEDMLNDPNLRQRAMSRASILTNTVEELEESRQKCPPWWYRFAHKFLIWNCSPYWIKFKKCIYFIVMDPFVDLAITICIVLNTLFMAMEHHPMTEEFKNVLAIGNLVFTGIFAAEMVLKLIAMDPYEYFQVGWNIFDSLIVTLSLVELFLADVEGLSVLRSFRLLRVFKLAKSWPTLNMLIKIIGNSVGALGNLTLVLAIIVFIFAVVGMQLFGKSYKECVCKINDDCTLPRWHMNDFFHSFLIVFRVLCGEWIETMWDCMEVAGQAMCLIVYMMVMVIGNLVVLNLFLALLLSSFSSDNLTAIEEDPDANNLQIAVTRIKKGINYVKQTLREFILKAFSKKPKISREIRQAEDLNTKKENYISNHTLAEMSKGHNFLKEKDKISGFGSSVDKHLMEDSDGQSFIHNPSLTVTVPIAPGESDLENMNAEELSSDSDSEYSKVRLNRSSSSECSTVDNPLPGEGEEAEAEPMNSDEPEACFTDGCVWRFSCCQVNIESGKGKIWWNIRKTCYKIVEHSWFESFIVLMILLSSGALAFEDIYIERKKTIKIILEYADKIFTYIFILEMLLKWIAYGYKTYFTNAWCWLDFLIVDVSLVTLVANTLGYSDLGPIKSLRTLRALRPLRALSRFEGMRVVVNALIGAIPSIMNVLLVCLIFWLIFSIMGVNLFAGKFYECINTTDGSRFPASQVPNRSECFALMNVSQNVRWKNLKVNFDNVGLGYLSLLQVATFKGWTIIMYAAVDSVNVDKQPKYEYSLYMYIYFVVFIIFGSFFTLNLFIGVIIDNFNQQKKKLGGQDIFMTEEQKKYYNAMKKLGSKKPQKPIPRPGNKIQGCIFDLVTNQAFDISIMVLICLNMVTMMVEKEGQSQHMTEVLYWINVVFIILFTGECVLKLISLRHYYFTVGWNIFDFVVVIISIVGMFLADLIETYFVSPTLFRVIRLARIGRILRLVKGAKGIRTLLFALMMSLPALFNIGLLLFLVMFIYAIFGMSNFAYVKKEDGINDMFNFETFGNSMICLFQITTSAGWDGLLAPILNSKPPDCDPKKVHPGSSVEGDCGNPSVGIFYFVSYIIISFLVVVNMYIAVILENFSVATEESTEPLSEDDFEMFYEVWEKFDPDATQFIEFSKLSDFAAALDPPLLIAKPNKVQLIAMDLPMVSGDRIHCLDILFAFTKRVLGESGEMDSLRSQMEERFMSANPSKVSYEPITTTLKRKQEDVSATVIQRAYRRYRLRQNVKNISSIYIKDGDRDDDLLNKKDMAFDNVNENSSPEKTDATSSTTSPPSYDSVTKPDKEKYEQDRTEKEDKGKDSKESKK
T1 sequence (Q07699 19-218 partner): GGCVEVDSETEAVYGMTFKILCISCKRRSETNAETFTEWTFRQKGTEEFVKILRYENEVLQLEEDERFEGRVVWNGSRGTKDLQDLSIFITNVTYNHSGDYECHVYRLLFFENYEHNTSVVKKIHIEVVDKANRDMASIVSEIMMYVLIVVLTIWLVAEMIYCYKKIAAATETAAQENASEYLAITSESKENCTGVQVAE

For orientation: IC50 means the point on the concentration scale where inhibition reaches its midpoint. As to `O=S(=O)(Nc1ccc(F)cn1)c1cc(F)c(OC[C@@H]2CNCC[C@H]2c2ccc(Cl)cc2)cc1F` (relative stereo) [Example 63, 4-((trans-4-(4-chlorophenyl)piperidin-3-yl)methoxy)-2,5-difluoro-N-(5-fluoropyridin-2-yl)benzenesulfonamide], the results for the IC50 in experiment [1] (read-out: NaV1.7 (IC50 class)) and in experiment [1] (read-out: NaV1.7 IC50) were under 100 nM and 70.5 nM, respectively. For the compound `Cn1cns/c1=N/S(=O)(=O)c1cc(F)c(OC[C@@H]2CNCC[C@H]2c2ccc(Cl)cc2)cc1F` (relative stereo) [Example 78, (E)-4-((trans-4-(4-chlorophenyl)piperidin-3-yl)methoxy)-2,5-difluoro-N-(4-methyl-1,2,4-thiadiazol-5(4H)-ylidene)benzenesulfonamide], the 50% inhibitory concentration (IC50) in experiment [2] stood at 4080 nM.

Compound `O=C1C[C@@H](c2cc(F)c(F)cc2F)[C@H](COc2cc(F)c(S(=O)(=O)Nc3ncns3)cc2F)CN1` (relative stereo) [Example 101, 2,5-difluoro-4-((trans-6-oxo-4-(2,4,5-trifluorophenyl)piperidin-3-yl)methoxy)-N-(1,2,4-thiadiazol-5-yl)benzenesulfonamide] showed an IC50 in experiment [2] of 4490 nM. Regarding `O=S(=O)(Nc1ncns1)c1cc(F)c(OC[C@@H]2CNC[C@H]2c2ccc(Cl)cc2)cc1F` (relative stereo) [Example 54, 4-((trans-4-(4-chlorophenyl)pyrrolidin-3-yl)methoxy)-2,5-difluoro-N-(1,2,4-thiadiazol-5-yl)benzenesulfonamide], the IC50 was under 100 nM in experiment [1] (read-out: NaV1.7 (IC50 class)) and 49.9 nM in experiment [1] (read-out: NaV1.7 IC50).

Consider `CC(C)NS(=O)(=O)c1ccc(OC[C@@H]2CNCC[C@H]2c2ccc(Cl)cc2)c(C#N)c1` (relative stereo) [Example 90, 4-((trans-4-(4-chlorophenyl)piperidin-3-yl)methoxy)-3-cyano-N-isopropylbenzenesulfonamide], for which, in experiment [2], the IC50 was over 10000 nM. For the compound `O=S(=O)(Nc1ncccn1)c1cc(F)c(OC[C@@H]2CNCC[C@H]2c2ccc(F)cc2)cc1F` (relative stereo) [Example 50, 2,5-difluoro-4-((trans-4-(4-fluorophenyl)piperidin-3-yl)methoxy)-N-(pyrimidin-2-yl)benzenesulfonamide], the IC50 in experiment [1] (read-out: NaV1.7 (IC50 class)) is 100 to 1000 nM; in experiment [1] (read-out: NaV1.7 IC50), 323 nM.

Turning to `O=S(=O)(Nc1ncns1)c1cc(F)c(OC[C@H]2CNCC[C@H]2c2ccc(Cl)cc2)cc1F` (relative stereo) [Example 66, 4-((cis-4-(4-chlorophenyl)piperidin-3-yl)methoxy)-2,5-difluoro-N-(1,2,4-thiadiazol-5-yl)benzenesulfonamide], the IC50 in experiment [1] (read-out: NaV1.7 IC50) was determined as 237 nM. In the case of `Cc1cc(NS(=O)(=O)c2cc(F)c(OC[C@@H]3CNCC[C@H]3c3ccc(Cl)cc3)cc2F)no1` (relative stereo) [Example 56, 4-((trans-4-(4-chlorophenyl)piperidin-3-yl)methoxy)-2,5-difluoro-N-(5-methylisoxazol-3-yl)benzenesulfonamide], the IC50 in experiment [1] (read-out: NaV1.7 (IC50 class)) was 1000 to 10000 nM; in experiment [1] (read-out: NaV1.7 IC50), 1890 nM. Take `O=S(=O)(Nc1ncns1)c1cc(F)c(OC[C@@H]2CNCC[C@H]2c2ccc(F)cc2)cc1F` [Example 46, 2,5-difluoro-4-(((3S,4R)-4-(4-fluorophenyl)piperidin-3-yl)methoxy)-N-(1,2,4-thiadiazol-5-yl)benzenesulfonamide]: the results for the IC50 in experiment [1] (read-out: NaV1.7 (IC50 class)) and in experiment [1] (read-out: NaV1.7 IC50) were 100 to 1000 nM and 928 nM, respectively. In the case of `O=S(=O)(Nc1ncns1)c1cc(F)c(OC[C@@H]2CN(CC(F)F)CC[C@H]2c2ccc(Cl)cc2)cc1F` (relative stereo) [Example 83, 4-((trans-4-(4-chlorophenyl)-1-(2,2-difluoroethyl)piperidin-3-yl)methoxy)-2,5-difluoro-N-(1,2,4-thiadiazol-5-yl)benzenesulfonamide], the results for the IC50 in experiment [1] (read-out: NaV1.7 (IC50 class)) and in experiment [1] (read-out: NaV1.7 IC50) were under 100 nM and 38.1 nM, respectively. Take `Cc1nsc(NS(=O)(=O)c2cc(F)c(OC[C@@H]3CNCC[C@H]3c3ccc(Cl)cc3)cc2F)n1` (relative stereo) [Example 52, 4-((trans-4-(4-chlorophenyl)piperidin-3-yl)methoxy)-2,5-difluoro-N-(3-methyl-1,2,4-thiadiazol-5-yl)benzenesulfonamide]: the IC50 in experiment [1] (read-out: NaV1.7 (IC50 class)) was 100 to 1000 nM; in experiment [1] (read-out: NaV1.7 IC50), 194 nM. In the case of `O=S(=O)(Nc1ncns1)c1cc(F)c(OC[C@@H]2CNCC[C@H]2c2ccc(Cl)cc2)cc1F` (relative stereo) [Example 44, 4-((trans-4-(4-chlorophenyl)piperidin-3-yl)methoxy)-2,5-difluoro-N-(1,2,4-thiadiazol-5-yl)benzenesulfonamide], in experiment [1] (read-out: NaV1.7 (IC50 class)), the IC50 was under 100 nM. For `Cc1cnc(NS(=O)(=O)c2cc(F)c(OC[C@@H]3CNCC[C@H]3c3ccc(Cl)cc3)cc2F)s1` (relative stereo) [Example 57, 4-((trans-4-(4-chlorophenyl)piperidin-3-yl)methoxy)-2,5-difluoro-N-(5-methylthiazol-2-yl)benzenesulfonamide], the IC50 was 100 to 1000 nM in experiment [1] (read-out: NaV1.7 (IC50 class)) and 116 nM in experiment [1] (read-out: NaV1.7 IC50). Taken in the same sequence, the figures for `CC(C)(C)OC(=O)N1CC[C@@H](c2ccc(Cl)cc2)[C@H](COc2cc(F)c(S(=O)(=O)Nc3ncns3)cc2F)C1` (relative stereo) [Example 69, trans-tert-butyl 3-((4-(N-(1,2,4-thiadiazol-5-yl)sulfamoyl)-2,5-difluorophenoxy)methyl)-4-(4-chlorophenyl)piperidine-1-carboxylate] were 100 to 1000 nM and 164 nM. In the case of `O=S(=O)(Nc1cccnn1)c1cc(F)c(OC[C@@H]2CNCC[C@H]2c2ccc(Cl)cc2)cc1F` (relative stereo) [Example 65, 4-((trans-4-(4-chlorophenyl)piperidin-3-yl)methoxy)-2,5-difluoro-N-(pyridazin-3-yl)benzenesulfonamide], the IC50 in experiment [1] (read-out: NaV1.7 (IC50 class)) is 100 to 1000 nM; in experiment [1] (read-out: NaV1.7 IC50) it was 171 nM. The corresponding values for `O=S(=O)(Nc1ncns1)c1cc(F)c(OC[C@@H]2CCCC[C@H]2c2ccc(F)cc2)cc1F` (relative stereo) [Example 68, 2,5-difluoro-4-((trans-2-(4-fluorophenyl)cyclohexyl)methoxy)-N-(1,2,4-thiadiazol-5-yl)benzenesulfonamide] are 100 to 1000 nM and 280 nM.

Take `O=S(=O)(Nc1ncccn1)c1cc(F)c(OC[C@@H]2CNCC[C@H]2c2ccc(Cl)cc2)cc1F` (relative stereo) [Example 49, 4-((trans-4-(4-chlorophenyl)piperidin-3-yl)methoxy)-2,5-difluoro-N-(pyrimidin-2-yl)benzenesulfonamide]: the IC50 in experiment [1] (read-out: NaV1.7 (IC50 class)) was under 100 nM; in experiment [1] (read-out: NaV1.7 IC50), 53.2 nM. Regarding `O=S(=O)(Nc1nncs1)c1cc(F)c(OC[C@@H]2CNCC[C@H]2c2ccc(Cl)cc2)cc1F` (relative stereo) [Example 51, 4-((trans-4-(4-chlorophenyl)piperidin-3-yl)methoxy)-2,5-difluoro-N-(1,3,4-thiadiazol-2-yl)benzenesulfonamide], the concentration for half-maximal inhibition (IC50) is under 100 nM in experiment [1] (read-out: NaV1.7 (IC50 class)) and 84.4 nM in experiment [1] (read-out: NaV1.7 IC50). The corresponding values for `O=S(=O)(Nc1ncns1)c1cc(F)c(OC[C@H]2CNCC[C@@H]2c2ccc(Cl)cc2)cc1F` [Example 77, 4-(((3R,4S)-4-(4-chlorophenyl)piperidin-3-yl)methoxy)-2,5-difluoro-N-(1,2,4-thiadiazol-5-yl)benzenesulfonamide] are under 100 nM and 1.1 nM.

For the compound `O=S(=O)(Nc1ncns1)c1cc(F)c(OC[C@@H]2CN(CCF)CC[C@H]2c2ccc(Cl)cc2)cc1F` (relative stereo) [Example 80, 4-((trans-4-(4-chlorophenyl)-1-(2-fluoroethyl)piperidin-3-yl)methoxy)-2,5-difluoro-N-(1,2,4-thiadiazol-5-yl)benzenesulfonamide], the IC50 is under 100 nM in experiment [1] (read-out: NaV1.7 (IC50 class)) and 93.7 nM in experiment [1] (read-out: NaV1.7 IC50). Take `O=S(=O)(Nc1ncns1)c1cc(F)c(OC[C@@H]2CNCC[C@H]2c2ccc(Cl)cc2)cc1F` [Example 84, 4-(((3S,4R)-4-(4-chlorophenyl)piperidin-3-yl)methoxy)-2,5-difluoro-N-(1,2,4-thiadiazol-5-yl)benzenesulfonamide]: the IC50 in experiment [1] (read-out: NaV1.7 (IC50 class)) is under 100 nM. For `O=S(=O)(Nc1ncns1)c1cc(F)c(OC[C@@H]2CCNC[C@H]2c2ccc(F)cc2)cc1F` (relative stereo) [Example 82, 2,5-difluoro-4-((trans-3-(4-fluorophenyl)piperidin-4-yl)methoxy)-N-(1,2,4-thiadiazol-5-yl)benzenesulfonamide], the IC50 was under 100 nM in experiment [1] (read-out: NaV1.7 (IC50 class)) and 31.7 nM in experiment [1] (read-out: NaV1.7 IC50).
